Assay [1] has as its target T1, Leucine aminopeptidase (Plasmodium falciparum 3D7, UniProt Q8IL11).
T1 sequence (Q8IL11 whole entry): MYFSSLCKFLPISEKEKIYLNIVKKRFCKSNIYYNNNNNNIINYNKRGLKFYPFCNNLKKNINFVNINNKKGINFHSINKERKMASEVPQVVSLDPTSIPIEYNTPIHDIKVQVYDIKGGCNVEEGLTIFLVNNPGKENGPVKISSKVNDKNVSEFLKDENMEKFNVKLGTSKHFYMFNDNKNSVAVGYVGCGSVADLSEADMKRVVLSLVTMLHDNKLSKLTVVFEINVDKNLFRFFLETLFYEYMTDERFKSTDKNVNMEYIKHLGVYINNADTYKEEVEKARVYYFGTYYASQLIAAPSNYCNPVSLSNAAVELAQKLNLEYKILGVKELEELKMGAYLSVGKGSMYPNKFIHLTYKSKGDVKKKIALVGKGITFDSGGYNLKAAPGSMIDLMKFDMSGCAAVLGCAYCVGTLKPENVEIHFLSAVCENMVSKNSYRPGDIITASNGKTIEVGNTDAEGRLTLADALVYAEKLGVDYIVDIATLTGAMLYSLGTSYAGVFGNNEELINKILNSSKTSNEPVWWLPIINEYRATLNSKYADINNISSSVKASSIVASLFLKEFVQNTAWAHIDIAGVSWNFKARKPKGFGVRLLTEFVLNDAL
The experiment in a line: P. falciparum M17LAP inhibitors, primary screen, biochemical, fluorogenic H-Leu-NHMec substrate, 1536-well (AID 1619). It counts as functional.

Assay [2] has as its target T2, Polyadenylate-binding protein 1 (Homo sapiens, UniProt P11940). The experiment in a line: PABP1 MLLE–PAM2 interaction inhibitors, dose response, miRNA deadenylation inhibitor project, biochemical, fluorescence polarization, Cy5-PAM2 peptide, secondary (AID 602260). It counts as functional. The following applies: read-out: IC50_Mean. On the technique in general: In fluorescence polarisation assays a small probe gives low polarisation when free and higher when bound to something large.

In assay [3] the target is T2, Polyadenylate-binding protein 1. The experiment in a line: PABP1 MLLE–PAM2 binding inhibitor potency, dose response, biochemical, fluorescence polarization, FITC-PAM2 peptide (AID 602259). It counts as functional. The following applies: read-out: IC50_Mean.
Assay [4] can be described thus: inhibitors of HIV Env-driven cell fusion, dose response, cherry-pick (AID 652057). The assay is classed as functional, cell-based.
Assay [5] is described as follows: inhibitors of clade B AD8 Env fusion, dose response, cell-based, cherry-pick (AID 652062).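 Note: luciferase signal from cell-cell fusion driven by HIV-1 clade B AD8 Env; potency is for inhibitors of fusion seen as a drop in luminescence.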 The assay is classed as functional.
Assay [6] can be described thus: inhibitors of SNCA 5'UTR-driven reporter translation, confirmation, H4 neuroglioma cells, luminescence (AID 1988). It counts as functional, cell-based.
Assay [7] is described as follows: inhibitors of firefly luciferase expression or activity, dose response, H4 neuroglioma cells, luminescence (AID 1990). It counts as functional, cell-based.
The nature of assay [8]: Luminescence Cell-Based Dose Response HTS to Identify Inhibitors of 5'UTR Stem-Loop Driven Prion Protein mRNA Translation in H4 Neuroglioblastoma Cells. [Related pubchem assays: 1827 (Project Summary), 1813 (Primary HTS)]. It counts as functional.
The target of assay [9] is Induced myeloid leukemia cell differentiation protein Mcl-1 (Homo sapiens, UniProt Q07820). It counts as functional.
For assay [10], the target named is Glyceraldehyde-3-phosphate dehydrogenase (Homo sapiens, UniProt P04406).
Assay [11] deals with Streptococcus. Put plainly: Group A Streptococcus viability loss, dose response, counter-screen for streptokinase expression inhibitor project, luminescence, BacTiterGlo (AID 1915).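 Note: potency for reduction of bacterial viability or growth.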 The assay is classed as functional, organism-based.
For assay [12], the target named is Cytochrome P450 2D6 (Homo sapiens, UniProt P10635).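 Note: CYP2D6 member of a cytochrome P450 panel assay.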
Assay [13] concerns the target T3, Streptokinase A (Streptococcus pyogenes serotype M1, UniProt P10520).
T3 sequence (P10520 whole entry): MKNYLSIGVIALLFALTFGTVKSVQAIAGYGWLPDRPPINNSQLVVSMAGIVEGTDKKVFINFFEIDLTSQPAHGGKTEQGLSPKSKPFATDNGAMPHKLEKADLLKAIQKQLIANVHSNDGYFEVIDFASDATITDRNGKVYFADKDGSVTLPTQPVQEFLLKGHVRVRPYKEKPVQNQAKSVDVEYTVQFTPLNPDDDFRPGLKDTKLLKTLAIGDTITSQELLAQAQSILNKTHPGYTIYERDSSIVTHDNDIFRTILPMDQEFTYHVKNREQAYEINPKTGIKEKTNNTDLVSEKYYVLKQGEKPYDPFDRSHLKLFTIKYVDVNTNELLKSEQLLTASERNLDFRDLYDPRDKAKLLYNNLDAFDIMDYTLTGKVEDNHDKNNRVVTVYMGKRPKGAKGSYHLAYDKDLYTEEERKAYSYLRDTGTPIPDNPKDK
Put plainly: S. pyogenes streptokinase expression inhibitors, potency, dose response, plasminogen activation absorbance, OD405 (AID 1914).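 Note: secreted streptokinase activity via plasminogen activation per viability signal from cell pellet.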 It counts as functional, Streptococcus pyogenes M1 GAS.

Assay [14] concerns Streptococcus sp. 'group A'. Put plainly: growth inhibition of control SK(-) GAS strain, dose response, counter-screen for streptokinase expression inhibitor project, luminescence, kanamycin, BacTiterGlo, confirmation (AID 1900). It counts as functional, organism-based.
For assay [15], the system named is BJ. The experiment in a line: cytotoxicity toward BJ-TERT-LT-ST fibroblasts, dose response, cell-based, RAS-independent, luminescence (AID 1935).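 Note: BJ fibroblasts immortalized with TERT plus LT and ST oncogenes.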 The assay is classed as functional. The following applies: Homo sapiens.
Assay [16] can be described thus: cytotoxicity toward DRD oncogenic fibroblasts, dose response, cell-based, non-viral oncogenic, luminescence (AID 1934). It counts as functional. The following applies: Homo sapiens.
Assay [17] relates to BJ. Put plainly: cytotoxicity toward BJ-TERT fibroblasts, dose response, cell-based, RAS-independent, luminescence (AID 1933). The assay is classed as functional. The following applies: Homo sapiens.
The subject of assay [18] is BJ. The experiment in a line: cells. It counts as functional, cell-based. The following applies: Homo sapiens.
Assay [19] deals with T4, Heat shock factor protein 1 (Mus musculus, UniProt P38532).
T4 sequence (P38532 whole entry): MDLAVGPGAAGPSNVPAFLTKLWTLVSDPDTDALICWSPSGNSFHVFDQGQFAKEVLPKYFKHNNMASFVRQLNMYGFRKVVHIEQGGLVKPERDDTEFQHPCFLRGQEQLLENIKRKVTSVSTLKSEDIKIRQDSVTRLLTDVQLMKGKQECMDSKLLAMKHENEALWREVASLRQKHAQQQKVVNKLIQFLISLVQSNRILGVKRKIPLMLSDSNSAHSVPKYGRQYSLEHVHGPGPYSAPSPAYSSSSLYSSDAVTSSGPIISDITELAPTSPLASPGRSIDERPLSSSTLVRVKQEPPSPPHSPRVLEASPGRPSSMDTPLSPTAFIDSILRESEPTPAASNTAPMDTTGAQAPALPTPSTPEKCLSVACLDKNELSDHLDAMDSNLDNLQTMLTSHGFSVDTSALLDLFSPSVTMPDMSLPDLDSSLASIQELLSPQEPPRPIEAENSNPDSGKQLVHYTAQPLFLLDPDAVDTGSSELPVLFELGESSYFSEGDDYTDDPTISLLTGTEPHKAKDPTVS
The experiment in a line: HSF1 potentiators in luciferase reporter cells, confirmation, cell-based, NIH3T3, luminescence, dose retest (AID 435004).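 Note: stress induced by proteasome inhibitor MG132 added 30 min after compound; luciferase reporter driven by HSF1 response element in NIH3T3 cells; actives raise luminescence as potentiators of the MG132 stress response.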 It counts as functional. For orientation: In a reporter assay the amount or activity of a reporter protein is the signal.

The subject of assay [20] is H9c2. Put plainly: cells. It counts as functional, cell-based. The following applies: Rattus norvegicus, H9c2, Myocardium.
A short description of assay [21]: HEp-2 cell cytotoxicity, dose response, cytotoxicity control for RSV inhibitor project, HTS (AID 2410). The assay is classed as functional. The following applies: human respiratory syncytial virus.

What is called AC50 is the midpoint of the concentration-response curve, whichever way the signal moves. A word on the EC50: it is the concentration giving half of the maximal effect. By CC50 is commonly meant the concentration that lowers cell viability or growth by half.

SMILES strings stand for the structures. Active and inactive are the calls of the source. Cut-off read from the data, not from the text of the source, for most assays here: actives have a measured EC50 and inactives only a lower limit. A value given as a limit tells only on which side of the number the result lay.

T2 sequence (P11940 whole entry): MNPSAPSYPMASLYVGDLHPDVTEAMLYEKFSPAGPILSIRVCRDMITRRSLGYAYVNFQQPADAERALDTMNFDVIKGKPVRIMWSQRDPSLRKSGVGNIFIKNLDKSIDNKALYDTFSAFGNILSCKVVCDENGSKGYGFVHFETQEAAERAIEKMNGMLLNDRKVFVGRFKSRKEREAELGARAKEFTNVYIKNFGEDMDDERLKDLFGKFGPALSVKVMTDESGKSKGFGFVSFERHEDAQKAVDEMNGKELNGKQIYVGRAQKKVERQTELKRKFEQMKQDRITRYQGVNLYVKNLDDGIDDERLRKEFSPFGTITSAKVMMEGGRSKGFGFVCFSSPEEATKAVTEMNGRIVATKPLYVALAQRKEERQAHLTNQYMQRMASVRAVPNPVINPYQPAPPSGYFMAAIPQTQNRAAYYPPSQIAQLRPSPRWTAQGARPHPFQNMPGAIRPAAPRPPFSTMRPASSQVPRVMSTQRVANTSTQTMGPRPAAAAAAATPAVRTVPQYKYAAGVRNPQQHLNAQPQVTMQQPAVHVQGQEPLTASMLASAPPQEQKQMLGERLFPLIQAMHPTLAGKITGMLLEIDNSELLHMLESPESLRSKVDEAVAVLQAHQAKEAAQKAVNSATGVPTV
Chain of Induced myeloid leukemia cell differentiation protein Mcl-1 (Q07820 whole entry): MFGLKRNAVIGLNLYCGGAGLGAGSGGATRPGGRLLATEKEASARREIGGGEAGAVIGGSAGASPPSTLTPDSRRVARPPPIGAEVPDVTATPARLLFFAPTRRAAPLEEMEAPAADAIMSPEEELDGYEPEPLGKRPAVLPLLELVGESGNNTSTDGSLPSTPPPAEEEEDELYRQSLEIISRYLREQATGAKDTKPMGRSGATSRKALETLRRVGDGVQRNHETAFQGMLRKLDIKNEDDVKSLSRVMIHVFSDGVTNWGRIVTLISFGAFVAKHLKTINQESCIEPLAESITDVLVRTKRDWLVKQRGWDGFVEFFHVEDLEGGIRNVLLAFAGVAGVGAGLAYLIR
Chain of Cytochrome P450 2D6 (P10635 whole entry): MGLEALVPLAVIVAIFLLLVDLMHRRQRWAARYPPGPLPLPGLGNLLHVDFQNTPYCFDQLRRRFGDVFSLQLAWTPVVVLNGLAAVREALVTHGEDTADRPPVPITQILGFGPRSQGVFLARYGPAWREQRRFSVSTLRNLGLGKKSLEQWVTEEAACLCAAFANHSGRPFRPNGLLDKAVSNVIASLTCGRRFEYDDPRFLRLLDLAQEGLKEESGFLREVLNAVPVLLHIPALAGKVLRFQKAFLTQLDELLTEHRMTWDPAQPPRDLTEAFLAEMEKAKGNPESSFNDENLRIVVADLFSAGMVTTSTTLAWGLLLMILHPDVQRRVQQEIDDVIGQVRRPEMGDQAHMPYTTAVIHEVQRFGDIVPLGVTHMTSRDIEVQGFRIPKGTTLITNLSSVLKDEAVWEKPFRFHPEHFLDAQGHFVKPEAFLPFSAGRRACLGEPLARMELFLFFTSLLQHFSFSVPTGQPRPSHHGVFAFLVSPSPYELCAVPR
Chain of Glyceraldehyde-3-phosphate dehydrogenase (P04406 whole entry): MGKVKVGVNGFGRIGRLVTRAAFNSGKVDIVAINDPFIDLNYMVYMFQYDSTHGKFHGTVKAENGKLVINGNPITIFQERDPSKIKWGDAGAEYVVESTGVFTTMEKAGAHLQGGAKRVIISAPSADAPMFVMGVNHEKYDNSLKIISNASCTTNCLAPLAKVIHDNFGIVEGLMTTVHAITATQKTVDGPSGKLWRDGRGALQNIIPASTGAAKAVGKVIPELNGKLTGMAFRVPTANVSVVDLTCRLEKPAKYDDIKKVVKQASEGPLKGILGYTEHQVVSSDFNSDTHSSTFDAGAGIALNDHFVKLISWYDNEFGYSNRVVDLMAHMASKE

On to `Cc1cc(C(=O)COC(=O)c2ccc[nH]c2=O)c(C)n1C1CC1`, for which, in assay [1], the IC50 is 13.3 µM (active).
Regarding `O=C(NC(=S)NNS(=O)(=O)c1ccccc1)c1ccccc1[N+](=O)[O-]`, the IC50 in assay [2] is > 66 µM (inactive); in assay [1], 29.9 µM (active); in assay [3] it was > 66 µM (inactive).
`O=C(c1ccc(Cl)s1)N1CCN(c2nc3ccccc3s2)CC1`: the half-maximal activity concentration (AC50) in assay [4] is 55.7 µM (active); in assay [5], 11.9 µM (active).
Consider `COC(=O)c1ccccc1NC(=S)NC(=O)c1ccc2c(c1)OCO2`, for which the IC50 in [2] and in assay [3] was > 66 µM (inactive) throughout.
Take `CC(C)c1ccc2[nH]c(O)c(N=NC(=O)c3cccc(S(=O)(=O)Nc4ccc(Cl)cc4)c3)c2c1`: the half-maximal effective concentration (EC50) in assay [6], in [7] and in [8] was > 120 µM (not active) each time.
With `Cc1cc2nc(-c3ccc(SCC(=O)N4CCN(C(=O)c5ccco5)CC4)nc3)[nH]c2cc1C`, the IC50 in [9] is 3.63 µM (active).
For the compound `O=C(Cc1ccc(N2CCNC2=O)cc1)N1CCCC(Nc2cccc(F)c2)C1` (stereo not drawn), the EC50 in assay [6] is 5.11 µM (active); in assay [7], 9.37 µM (inconclusive); in assay [8], 2.72 µM (active).
`CC1CCN(c2ccccc2NC(=S)NC(=O)c2ccco2)CC1`: the IC50 in assay [2] and in [3] was > 66 µM (inactive) in each case.
In the case of `CCOc1ccc(NC(=O)CSc2nnnn2CC(=O)O)cc1`, in assay [1], the IC50 is 6.69 µM (active).
In the case of `O=C(O)CCCCCN1C(=O)/C(=C\c2ccc(-c3ccc(Cl)cc3)o2)SC1=S`, in assay [9], the IC50 is 1.27 µM (active).
On to `COc1cccc(N2CCN(C3=C(Cl)C(=O)N(c4ccc([N+](=O)[O-])cc4)C3=O)CC2)c1`, for which the IC50 in assay [10] was > 50 µM (inconclusive).
On to `COC(=O)c1sc(=S)n(-c2cc(F)ccc2F)c1N`, for which the IC50 in assay [2] and in assay [3] was > 66 µM (inactive) each time.
With `O=C(Cn1nnc2ccccc2c1=O)Nc1ccc2c(c1)CCC2`, the IC50 in [1] was 1.51 µM (active).
For the compound `CCCCC1CCC(c2nc(-c3ccccn3)no2)CC1` (stereo not drawn), the EC50 is 2.95 µM (active) in [6]; 21 µM (active) in [11]; 9.12 µM (inconclusive) in assay [7]; > 150 µM (not active) in assay [13]; > 60 µM (not active) in assay [8]; 16.1 µM (active) in [14]. Moreover, in assay [12], the AC50 was 25.1 µM (inconclusive).
`Cc1ccc(NC(=O)CCc2c[nH]c3ccccc23)nc1`: the EC50 in assay [15] is > 150 µM (inconclusive); in assay [16], 17.7 µM (active); in [17], 12.6 µM (active); in [18], 50.4 µM (active).
Turning to `CCCCCc1ccc(C(=O)CCCC)c(S)n1`, the IC50 in [2] and in [3] was > 66 µM (inactive) throughout.
For `Cc1ccc(N(Cc2ccc(C(=O)Nc3ccccc3C(=O)NCc3ccco3)cc2)S(C)(=O)=O)cc1C`, the EC50 in [19] was > 260 µM (inactive); in assay [6] it was 22.9 µM (active); in assay [7], 17.5 µM (active); in assay [8] it was > 120 µM (not active).
Take `COc1cc(/C=C2\N=C(c3ccccc3)NNC2=O)cc(OC)c1OC`: the EC50 is 8.22 µM (active) in [6], > 120 µM (not active) in assay [7] and 9.91 µM (active) in [8].
As for `O=C(Nc1nnc(C2CC2)s1)c1cc(-c2ccccc2)nn1-c1ccccc1`, the IC50 in assay [20] is 12.3 µM (active). Also, the values for the EC50 in assay [11], in assay [13] and in [14] were 20.8 µM (active), 8.32 µM (active) and 10.1 µM (active), respectively. Also, in [21], the 50% cytotoxic concentration (CC50) was 13.1 µM (active).
`O=C1CCCC(=O)C1=NNc1ccc2ncsc2c1`: the IC50 in assay [2] and in [3] was > 66 µM (inactive) throughout.
As for `CC(C)Oc1ccc(C(=O)NC2(C(F)(F)F)N=C3SCCN3C2=O)cc1` (stereo not drawn), the IC50 in [2] and in assay [3] was > 66 µM (inactive) each time.
Take `O=C(CN1C(=O)c2ccccc2S1(=O)=O)N1CCc2ccccc2C1`: the values for the 50% effective concentration (EC50) in assay [6], in assay [7] and in assay [8] were 12.6 µM (active), 25.5 µM (active) and 21.4 µM (active), respectively.
As for `O=C(O)c1ccc(N/N=C/C2=C(N3CCOCC3)C(=C\c3ccccc3)/CC2)cc1`, the IC50 in assay [9] is 4.44 µM (active).
As for `CC(/C=N/NC(=O)c1cc(-c2ccc(Cl)cc2)nc2ccccc12)=C\c1ccco1`, the EC50 in assay [15] is 22.4 µM (inconclusive); in assay [16], 2.58 µM (inconclusive); in [17], 2.07 µM (active); in assay [18] it was 2.73 µM (active).
In the case of `C[C@H](CO)N1C[C@H](C)[C@H](CN(C)S(=O)(=O)c2cccs2)Oc2ccc(NC(=O)Cc3cn(C)c4ccccc34)cc2CC1=O`, the half-maximal activity concentration (AC50) was 0.883 µM (active) in [4] and 12.5 µM (active) in [5].
Take `COc1cccc(Nc2ncnc3[nH]cnc23)c1`: in assay [1], the IC50 was 95.1 µM (active).

The values above are taken from ChEMBL document CHEMBL1201862, “PubChem BioAssay data set” (2004).
